Measurements published in US20040063661A1, “Treatment of statin side effects” (priority 2000, published 2004).
Values joined by “and” are separate entries in the source; they are usually repeats but may differ in a detail not shown here. Identical values can stand only once. Marks after values point to notes of the source that are not given here.

Columns and labels:
[1] = Pilot clinical study Q10: blood Q10 level (patient compliance); type: in vivo, human; details: one line per patient
Procedure: Commencing at WK(0) and continuing through the study the patients were asked to take a daily dose of 300 mg of Coenzyme Q10 (Q10), which was administered as […] sof gel capsules (commercially available from R. P. Scherer), morning and evening.

[2] = tested on: chronic fatigue syndrome; assay: Case report: self assessed well being, day to day tasks and muscle pain in a chronic fatigue syndrome patient on Q10 (Example 2); type: in vivo, human; details: for Feeling of Well Being / Absence of Muscle Pain / Heavy Work (1 hour) / Light Work/Walking / Sedentary Work / Work: teacher / Wellness Score (out of 60): Q10 2×50 mg per day; for Feeling of Well Being: self rated 0-10 (10 = best); for Absence of Muscle Pain: self rated 0-10 (10 = complete absence of pain); for Wellness Score (out of 60): sum of the six self ratings
Procedure: The patient had suffered for a number of years from chronic fatigue syndrome. The condition was severe enough such that they were unable to pursue their teaching career and day to day tasks were generally performed with a general sense of fatigue and muscle pain. Muscle pain was generally controlled with over the counter (ie. non-prescription) analgesics containing 500 mg paracetamol and 8 mg codeine phosphate, 2-4 tablets per day. Table 1 provides a summary of the patient's self assessed levels of general sense of well being, ability to perform day to day tasks and level of (or relative absence of) muscle pain during a dosing regimen of 2×50 mg per day of Q10(50 mg taken each at breakfast and dinner). Levels were rated by the patient on a scale of 0-10, with 0 representing severe incapacity or pain and 10 representing the complete absence of pain or fatigue/excellent performance. FIG. 1 depicts the self assessed (absence of) pain levels for the patient, over a period of 30 days, on a scale of […], where 0 is severe pain and 10 relates to an absence of pain (wellness). On day 1 the patient commenced taking 100 mg of Q10 per day until day 10 when the dosage was increased to 200 mg per day

[3] = Day 1, self rated 0-10 (10 = excellent performance)
[4] = Day 2, self rated 0-10 (10 = excellent performance)
[5] = Day 3, self rated 0-10 (10 = excellent performance)
[6] = Day 4, self rated 0-10 (10 = excellent performance)
[7] = Day 5, self rated 0-10 (10 = excellent performance)
[8] = Week 2, self rated 0-10 (10 = excellent performance)
[9] = Week 12, self rated 0-10 (10 = excellent performance)

COC1=C(OC)C(=O)C(C/C=C(\C)CC/C=C(\C)CC/C=C(\C)CC/C=C(\C)CC/C=C(\C)CC/C=C(\C)CC/C=C(\C)CC/C=C(\C)CC/C=C(\C)CCC=C(C)C)=C(C)C1=O [Q10, Coenzyme Q10]
Q10 (blood level) ([1]; WK(0), baseline before Q10): 0.59 µg/mL and 0.46 µg/mL and 1.39 µg/mL
Q10 (blood level) ([1]; WK(+4), 300 mg Q10 daily from WK(0)): 2.42 µg/mL and 2.49 µg/mL and 1.92 µg/mL and 2.22 µg/mL
self assessed (absence of) pain levels, FIG. 1 ([2]; 30 day period, 100 mg of Q10 per day from day 1, 200 mg per day from day 10): increasing absence of muscle pain
Feeling of Well Being ([2]; Day 1): 4
Absence of Muscle Pain ([2]; Day 1, patient required 2x analgesic tablets): 3*
Heavy Work (1 hour) [2, 3]: 0
Light Work/Walking [2, 3]: 4
Sedentary Work [2, 3]: 3
Work: teacher [2, 3]: 0
Wellness Score (out of 60) ([2]; Day 1): 14
Feeling of Well Being ([2]; Day 2): 4
Absence of Muscle Pain ([2]; Day 2, patient required 2 × 2 (4) analgesic tablets): 3**
Heavy Work (1 hour) [2, 4]: 0
Light Work/Walking [2, 4]: 4
Sedentary Work [2, 4]: 3
Work: teacher [2, 4]: 0
Wellness Score (out of 60) ([2]; Day 2): 14
Feeling of Well Being ([2]; Day 3): 5
Absence of Muscle Pain ([2]; Day 3): 7
Light Work/Walking [2, 5]: 6
Sedentary Work [2, 5]: 4
Work: teacher [2, 5]: 0
Heavy Work (1 hour) ([2]; Day 3, self rated 0-10, patient performed only ½ hour heavy work): 3***
Wellness Score (out of 60) ([2]; Day 3): 25
Feeling of Well Being ([2]; Day 4): 6
Absence of Muscle Pain ([2]; Day 4): 7
Light Work/Walking [2, 6]: 6
Sedentary Work [2, 6]: 5
Work: teacher [2, 6]: 0
Heavy Work (1 hour) ([2]; Day 4, self rated 0-10, patient performed only ½ hour heavy work): 3***
Wellness Score (out of 60) ([2]; Day 4): 27
Feeling of Well Being ([2]; Day 5): 7
Absence of Muscle Pain ([2]; Day 5): 7
Light Work/Walking [2, 7]: 7
Sedentary Work [2, 7]: 6
Work: teacher [2, 7]: 0
Heavy Work (1 hour) ([2]; Day 5, self rated 0-10, patient performed only ½ hour heavy work): 3***
Wellness Score (out of 60) ([2]; Day 5): 30
Feeling of Well Being ([2]; Week 2): 7
Absence of Muscle Pain ([2]; Week 2): 7
Heavy Work (1 hour) [2, 8]: 5
Light Work/Walking [2, 8]: 7
Sedentary Work [2, 8]: 7
Work: teacher [2, 8]: 3
Wellness Score (out of 60) ([2]; Week 2): 36
Feeling of Well Being ([2]; Week 12): 9
Absence of Muscle Pain ([2]; Week 12): 9
Heavy Work (1 hour) [2, 9]: 8
Light Work/Walking [2, 9]: 9
Sedentary Work [2, 9]: 9
Work: teacher [2, 9]: 8
Wellness Score (out of 60) ([2]; Week 12): 52
